What was measured:
[1] = target: T1, Hordeum HPPD (SEQ ID NO:2) (Hordeum vulgare, UniProt O48604, A164G/R146V/R147D/R148G); test: HPPD activity assay; assay type: biochemical; conditions: HPPD enzyme Hordeum
T1 construct: His-tag (N); made in house; host or cells: E. coli BL21 (DE3)

Avena HPPD = test: HPPD activity assay; assay type: biochemical, Avena sativa; conditions: HPPD enzyme Avena
Method: (§1) The activity assay for HPPD is based on the analysis of homogentisic acid by reversed phase HPLC.
(§2) The assay mixture can contain 150 mM potassium phosphate buffer pH 7.0, 50 mM L-ascorbic acid, 100 μM Catalase (Sigma-Aldrich), 1 μM FeSO4 and 0.2 units of purified HPPD enzyme in a total volume of 505 μl. 1 unit is defined as the amount of enzyme that is required to produce 1 nmol of HGA per minute at 20° C.
(§3) The reaction is allowed to proceed for 45 min at room temperature. The reaction is stopped by the addition of 50 μl of 4.5 M phosphoric acid. The sample is filtered using a […] pore size PVDF filtration device. 5 μl of the cleared sample is analyzed on an UPLC HSS T3 column (particle size 1.8 μm, dimensions 2, 1×50 mm; Waters) by isocratic elution using 90% 20 mM NaH2PO4 pH 2.2, 10% methanol (v/v).
(§4) HGA is detected electrochemically at 750 mV (mode: DC; polarity: positive) and quantified by integrating peak areas (Empower software; Waters).
(§5) Inhibitors are dissolved in DMSO (dimethylsulfoxide) to a concentration of 0.5 mM. From this stock solution serial five-fold dilutions are prepared in DMSO, which are used in the assay. The respective inhibitor solution accounts for 1% of the assay volume. Thus, final inhibitor concentrations range from 5 μM to 320 pM, respectively. Activities are normalized by setting the uninhibited enzyme activity to 100%. IC50 values are calculated using non-linear regression.
(§6) Using methods which are described in the above examples or well known in the art, purified recombinant wild-type HPPD enzymes are characterized with respect to their kinetic properties and sensitivity towards HPPD inhibiting herbicides. Apparent michaelis constants (Km) and maximal reaction velocities (Vmax) are calculated by non-linear regression with the software GraphPad Prism 5 (GraphPad Software, La Jolla, USA) using a substrate inhibition model. […] Weighted means (by standard error) of Km and IC50 values are calculated from at least three independent experiments. The Cheng-Prusoff equation for competitive inhibition (Cheng, Y. C.; Prusoff, W. H. Biochem Pharmacol 1973, 22, 3099-3108) is used to calculate dissociation constants (Ki).
(§7) Field performance of the HPPD enzyme, which is used as a herbicide tolerance trait may depend not only on its lack of sensitivity towards HPPD inhibiting herbicides but also on its activity. To assess the potential performance of a herbicide tolerance trait a tolerance index (TI) is calculated using the following formula: […]
(§8) Easy comparison and ranking of each trait is enabled by normalizing tolerance indexes on Arabidopsis wild-type HPPD.

Arabidopsis HPPD F381L = target: T2, Arabidopsis HPPD F381L (Arabidopsis thaliana, UniProt P93836, F381L); assay type: biochemical; conditions: Arabidopsis HPPD variant F381L; normalized on wild-type
T2 construct: His6 (N); made in house; host or cells: E. coli BL21 (DE3)
Method: as §1, §2, §3, §4, §5
(§9) Purified, mutant HPPD enzymes are obtained by the methods described above. Dose response and kinetic measurements are carried out using the described HPPD activity assay. Apparent michaelis constants (Km) and maximal reaction velocities (Vmax) are calculated by non-linear regression with the software GraphPad Prism 5 (GraphPad Software, La Jolla, USA) using a substrate inhibition model. […] Weighted means (by standard error) of K. and IC50 values are calculated from at least three independent experiments. The Cheng-Prusoff equation for competitive inhibition (Cheng, Y. C.; Prusoff, W. H. Biochem Pharmacol 1973, 22, 3099-3108) is used to calculate dissociation constants (Ki).
as §7, with “of the optimized HPPD enzyme,” for “of the HPPD enzyme,”
(§10) Easy comparison and ranking of each trait is enabled by normalizing tolerance indexes on the respective wild-type HPPD.

[2] = target: T3, Arabidopsis HPPD M335H, P336A, E363Q (Arabidopsis thaliana, UniProt P93836, E363Q/M335H/P336A); assay type: biochemical; conditions: Arabidopsis HPPD variant M335H, normalized on wild-type;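 also: reaction started with 4-HPP at 0.05 mM after 30 min preincubation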
T3 construct: His6 (N); made in house; host or cells: E. coli BL21 (DE3)
Method: as §1, §2, §3, §4, §5, §9
as §7, with “of the optimized HPPD enzyme,” for “of the HPPD enzyme,”
as §10

[3] = target: T4, Arabidopsis HPPD M335H, P336G (Arabidopsis thaliana, UniProt P93836, M335H/P336G); assay type: biochemical; conditions: Arabidopsis HPPD variant M335H, normalized on wild-type
T4 construct: His6 (N); made in house; host or cells: E. coli BL21 (DE3)
Method: as §1, §2, §3, §4, §5, §9
as §7, with “of the optimized HPPD enzyme,” for “of the HPPD enzyme,”
as §10

[4] = target: T5, Arabidopsis HPPD M335H, P336A (Arabidopsis thaliana, UniProt P93836, M335H/P336A); assay type: biochemical; conditions: Arabidopsis HPPD variant M335H, normalized on wild-type;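 also: reaction started with 4-HPP at 0.05 mM after 30 min preincubation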
T5 construct: His6 (N); made in house; host or cells: E. coli BL21 (DE3)
Method: as §1, §2, §3, §4, §5, §9
as §7, with “of the optimized HPPD enzyme,” for “of the HPPD enzyme,”
as §10

[5] = target: T6, Arabidopsis HPPD M335H, P336G, E363Q (Arabidopsis thaliana, UniProt P93836, E363Q/M335H/P336G); assay type: biochemical; conditions: Arabidopsis HPPD variant M335H, normalized on wild-type
T6 construct: His6 (N); made in house; host or cells: E. coli BL21 (DE3)
Method: as §1, §2, §3, §4, §5, §9
as §7, with “of the optimized HPPD enzyme,” for “of the HPPD enzyme,”
as §10

Arabidopsis HPPD F381I = target: T7, Arabidopsis HPPD F381I (Arabidopsis thaliana, UniProt P93836, F381I); assay type: biochemical; conditions: Arabidopsis HPPD variant F381I; normalized on wild-type;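 also: reaction started with 4-HPP at 0.05 mM after 30 min preincubation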
T7 construct: His6 (N); made in house; host or cells: E. coli BL21 (DE3)
Method: as §1, §2, §3, §4, §5, §9
as §7, with “of the optimized HPPD enzyme,” for “of the HPPD enzyme,”
as §10

[6] = target: T8, Arabidopsis HPPD (SEQ ID NO:53) (Arabidopsis thaliana, UniProt P93836); test: HPPD activity assay (HPLC of homogentisic acid); assay type: biochemical; conditions: for Normalized tolerance index (TI): Arabidopsis HPPD variant Wild-type (reference, SEQ ID: 53); for TI (tolerance index): Arabidopsis HPPD, not normalized; for TI normalized to Arabidopsis HPPD: HPPD enzyme Arabidopsis (reference)
T8 construct: His6 (N); made in house; host or cells: E. coli BL21 (DE3)
T8 sequence (P93836 1-445): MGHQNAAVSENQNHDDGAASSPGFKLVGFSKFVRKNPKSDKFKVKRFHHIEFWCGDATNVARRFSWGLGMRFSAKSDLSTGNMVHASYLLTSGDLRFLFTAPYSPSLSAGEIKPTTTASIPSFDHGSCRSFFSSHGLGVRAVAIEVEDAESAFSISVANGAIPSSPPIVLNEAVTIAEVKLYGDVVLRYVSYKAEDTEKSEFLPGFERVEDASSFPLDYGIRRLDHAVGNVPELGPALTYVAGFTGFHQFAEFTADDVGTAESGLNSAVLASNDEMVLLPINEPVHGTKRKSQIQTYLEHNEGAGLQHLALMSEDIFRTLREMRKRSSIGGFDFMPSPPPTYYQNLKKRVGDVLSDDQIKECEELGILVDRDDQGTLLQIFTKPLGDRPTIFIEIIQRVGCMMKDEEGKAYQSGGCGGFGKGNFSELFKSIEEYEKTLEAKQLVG
Method: as §1, §2, §3, §4, §5, §6, §7, §8

HPPD Seq ID 67 ID10 = test: HPPD activity assay; assay type: biochemical, Zea mays; conditions: HPPD enzyme Seq ID 67 ID10;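 also: reaction started with 4-HPP at 0.05 mM after 30 min preincubation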
Method: as §1, §2, §3, §4, §5, §6, §7, §8

HPPD Seq ID 69 ID406 = test: HPPD activity assay; assay type: biochemical, Zea mays; conditions: HPPD enzyme Seq ID 69 ID406;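 also: reaction started with 4-HPP at 0.05 mM after 30 min preincubation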
Method: as §1, §2, §3, §4, §5, §6, §7, §8

T6 sequence (P93836 whole entry M335H/P336G/E363Q): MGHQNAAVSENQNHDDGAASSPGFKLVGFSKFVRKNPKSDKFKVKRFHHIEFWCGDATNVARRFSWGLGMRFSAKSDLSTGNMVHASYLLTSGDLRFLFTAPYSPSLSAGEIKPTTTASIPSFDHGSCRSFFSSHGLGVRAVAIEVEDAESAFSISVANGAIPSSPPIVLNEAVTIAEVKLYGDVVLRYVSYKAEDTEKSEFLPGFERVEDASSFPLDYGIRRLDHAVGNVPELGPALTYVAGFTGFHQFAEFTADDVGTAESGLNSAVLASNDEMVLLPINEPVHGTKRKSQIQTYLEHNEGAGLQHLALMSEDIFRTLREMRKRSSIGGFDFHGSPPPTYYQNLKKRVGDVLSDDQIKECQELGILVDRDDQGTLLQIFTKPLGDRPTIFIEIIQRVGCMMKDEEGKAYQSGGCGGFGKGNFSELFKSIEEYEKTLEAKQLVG
T7 sequence (P93836 whole entry F381I): as the sequence (P93836 whole entry M335H/P336G/E363Q) above, with H335M, G336P, Q363E, F381I counted along it
T3 sequence (P93836 whole entry M335H/P336A/E363Q): as the sequence (P93836 whole entry M335H/P336G/E363Q) above, with G336A counted along it
T2 sequence (P93836 whole entry F381L): as the sequence (P93836 whole entry M335H/P336G/E363Q) above, with H335M, G336P, Q363E, F381L counted along it
T5 sequence (P93836 whole entry M335H/P336A): as the sequence (P93836 whole entry M335H/P336G/E363Q) above, with G336A, Q363E counted along it
T4 sequence (P93836 whole entry M335H/P336G): as the sequence (P93836 whole entry M335H/P336G/E363Q) above, with Q363E counted along it
T1 sequence (O48604 whole entry R146V/R147D/R148G/A164G): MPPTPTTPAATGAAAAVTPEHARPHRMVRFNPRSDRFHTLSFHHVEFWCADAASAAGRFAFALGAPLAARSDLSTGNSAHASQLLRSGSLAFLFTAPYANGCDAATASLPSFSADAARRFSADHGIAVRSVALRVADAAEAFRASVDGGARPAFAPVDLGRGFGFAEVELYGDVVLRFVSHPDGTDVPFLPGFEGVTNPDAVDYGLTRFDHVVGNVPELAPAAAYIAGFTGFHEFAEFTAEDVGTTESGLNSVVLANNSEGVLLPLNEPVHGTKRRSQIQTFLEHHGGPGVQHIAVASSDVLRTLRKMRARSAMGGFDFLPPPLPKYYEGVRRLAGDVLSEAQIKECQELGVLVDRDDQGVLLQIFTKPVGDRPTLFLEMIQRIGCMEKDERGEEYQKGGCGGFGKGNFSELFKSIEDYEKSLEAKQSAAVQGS

Row | SMILES | TI normalized to Arabidopsis HPPD [1] | TI normalized to Arabidopsis HPPD (Avena HPPD) | Normalized tolerance index (TI) (Arabidopsis HPPD F381L) | Normalized tolerance index (TI) [2] | Normalized tolerance index (TI) [3] | Normalized tolerance index (TI) [4] | Normalized tolerance index (TI) [5] | Normalized tolerance index (TI) (Arabidopsis HPPD F381I) | Normalized tolerance index (TI) [6] | TI (tolerance index) [6] | TI normalized to Arabidopsis HPPD [6] | TI normalized to Arabidopsis HPPD (HPPD Seq ID 67 ID10) | TI normalized to Arabidopsis HPPD (HPPD Seq ID 69 ID406) | Ki [6] [nM]
1 | Cc1c(C(=O)c2cnn(C)c2O)ccc(S(C)(=O)=O)c1C1=NOCC1 [Inhibitor 1, [3-(4,5-dihydroisoxazol-3-yl)-2-methyl-4-methylsulfonyl-phenyl]-(5-hydroxy-1-methyl-pyrazol-4-yl)methanone] | 3.7 | 1.6 | 11 | 6.4 | 5 | 3.4 | 3 | 10.8 | 1 | 9.5E−4 | 1 | 120.8 | 15 | 
2 | CS(=O)(=O)c1ccc(C(=O)C2C(=O)CCCC2=O)c([N+](=O)[O-])c1 [Inhibitor 2, 2-(4-methylsulfonyl-2-nitro-benzoyl)cyclohexane-1,3-dione] | 0.9 | 3 | 0.1 | 0.3 | 0.1 | 0.1 | 0.1 | 0.1 | 1 | 3.6E−2 | 1 | 22.9 | 5.6 | 36
3 | COCCOCc1nc(C(F)(F)F)ccc1C(=O)C1=C(O)C2CCC(C2)C1=O (stereo not drawn) [Inhibitor 3, 2-hydroxy-3-[2-(2-methoxyethoxymethyl)-6-(trifluoromethyl)pyridine-3-carbonyl]bicyclo[3.2.1]oct-2-en-4-one] | 0.2 | 2.5 | 0.1 | 0.5 | 0.3 | 0.1 | 0.1 | 0.1 | 1 |  | 1 | 20.1 | 9.9 | 
4 | CS(=O)(=O)c1ccc(C(=O)C2C(=O)CCCC2=O)c(Cl)c1COCC(F)(F)F [Inhibitor 4, 2-[2-chloro-4-methylsulfonyl-3-(2,2,2-trifluoroethoxymethyl)benzoyl]cyclohexane-1,3-dione] | 0.1 | 3 | 0.1 | 0.3 | 0.2 | 0.1 | 0.1 | 0.1 | 1 |  | 1 | 26 | 5.5 | 

— patent US12065654B2, “Plants having increased tolerance to herbicides” (BASF SE, priority 2014, dated 2024)
